One test has as its system transplanted MSCs. The test can be described thus: Survival of transplanted CM-Dil-stained mesenchymal stem cells (immunofluorescence, flow cytometry). To be noted: MSCs + 2-DG 500 mg/kg/day intraperitoneal; 3rd day after surgery; FIG. 3. A general note: Flow cytometry measures light scatter and fluorescence of single cells or particles in a stream.
Test [1] deals with mouse myocardial infarction modelling (LAD ligation). The test can be described thus: Ventricular remodeling: HW/BW and Masson staining, myocardial infarction area/heart area. In kind it is in vivo, C57BL/6J mice. The settings on record: MSCs + 2-DG 500 mg/kg/day intraperitoneal; 28 days after surgery; FIG. 2. An excerpt:
The sham-operated group was only passed through the lower part of the LAD without ligation, and the rest were the same as the model group. After ligation, it turned white from the ligation site to the cardiac apex when observed with the naked eyes. The left ventricular tissue was taken for cardiac tissue staining after 1 week and obvious fibrosis was observed, indicating the successful establishment of the myocardial infarction modelling. […] Masson staining: The mice were euthanized 28 days after surgery, and left ventricular tissue was taken for cardiac tissue staining to observe the therapeutic effect. It was carried out according to the routine Masson staining steps, and the observation and photo-taking were carried out under a regular optical microscope. The image analysis software Image J was used to analyze the area of each part and calculate the myocardial infarction area/heart area.

For test [2] the test system is unchanged. Description: Cardiac ultrasound testing of cardiac function after myocardial infarction (EF, FS, LVEDD, LVESD). In kind it is in vivo, C57BL/6J mice. An excerpt: The sham-operated group was only passed through the lower part of the LAD without ligation, and the rest were the same as the model group. After ligation, it turned white from the ligation site to the cardiac apex when observed with the naked eyes. The left ventricular tissue was taken for cardiac tissue staining after 1 week and obvious fibrosis was observed, indicating the successful establishment of the myocardial infarction modelling. […] After anesthesia of mice (same method as before) and depilation, the mice lied on the left side, and the probe of the cardiac ultrasound diagnostic instrument was placed on the anterior wall of the heart, a two-dimensional short-axis view of the left ventricle at the papillary muscle level was taken and the M-mode ultrasonic scanning was recorded. And left ventricular ejection fraction (EF), shortening fraction (FS), left ventricular end diastolic diameter (LVEDD), and left ventricular end systolic diameter (LVESD) were measured for three consecutive cardiac cycles.

These results are taken from US20240108658A1, “SYNERGISTIC STEM CELL-BASED MEDICATION FOR TREATING MYOCARDIAL INFARCTION AND RELATED APPLICATION” (SOOCHOW UNIVERSITY, priority 2021, published 2024).

Structures are written as SMILES.

As to `O=CC[C@@H](O)[C@H](O)[C@H](O)CO` [2-DG, 2-Deoxy-D-glucose], in the test on transplanted MSCs, the “survival of transplanted MSCs” value is reported as “significantly increases the survival of transplanted MSCs”. Moreover, in test [1], the “ventricular remodeling of mice treated with MSCs after myocardial infarction” value is on record as “improvement of ventricular remodeling”. In addition, the “cardiac function of mice treated with MSCs after myocardial infarction” value in test [2] (MSCs 5×105 intramyocardial + 2-DG 500 mg/kg/day intraperitoneal, FIG. 1) is “improvement of cardiac function”. The “function of MSCs in improving myocardial infarction (overall conclusion)” value in test [2] (conclusion from Examples 1-3, MSCs + 2-DG) was “can effectively improve the function of MSCs in improving myocardial infarction”.
